One experiment relates to Fusarium culmorum. Put plainly: Liquid culture 96-well mixture assay with malonomicin, Fusarium culmorum, 72 hrs. It counts as cell-based. The note with it: read-out: control of fungal growth (% reduction). How it is done: (§1) A stock solution for compound of Formula I(a) was produced in DMSO (max. 10 mg/ml). Malonomicin was produced according to Law et al, 2018 (Nature Catalys is |VOL 1|DECEMBER 2018|977-984). A stock solution of malonomicin was produced in water plus 0.025% Tween® 20.
(§2) Assays to test efficacy of mixtures of the lipopeptide compound of Formula I(a) in combination with malonomicin on the control of fungal pathogens in a liquid culture assay were designed for a 96well plate as outlined in table 1:
(§3) The 96 well plate design allows to compare disease control of the mixture with disease control of the respective single compound at the same rate.
(§4) A master plate with 10× concentrated solution of the compound stock solutions diluted in water plus 0.025% Tween® 20 was prepared. The concentration of DMSO (from the stock of compound of Formula (a)) and Tween® 20 was kept constant in all cells of the master plate. 10 μl was transferred from the master plate to a 96well test plate. The nutrient broth containing the fungal spores/mycelia fragments was then added to the test plate to give an end concentration of 1× for the tested compounds (as outlined in Table 8). The test plates were incubated in the dark at 24 °C and 96% rh. The inhibition of fungal growth was determined photometrically after ca 3 days, and percent fungal growth reduction relative to the untreated check was calculated.
Fusarium culmorum (EPPO Code: FUSACU)
Conidia of the fungus from cryogenic storage were directly mixed into nutrient broth (PDB: potato dextrose broth).

Another experiment concerns Pyricularia oryzae. It counts as cell-based. The note with it: plate column (1): compound of Formula I(a) alone, dilution series lines A (highest) to G; concentrations in Table 8.
The next experiment concerns Sclerotinia sclerotiorum. Briefly: Liquid culture 96-well mixture assay with malonomicin, Sclerotinia sclerotiorum, 72 hrs. In kind it is cell-based. Conditions: plate column (1): compound of Formula I(a) alone, dilution series lines A (highest) to G; concentrations in Table 8. How it is done: as §1, §2, §3, §4
Sclerotinia sclerotiorum (EPPO Code: SCLESC)
Mycelial fragments of the fungus prepared from a fresh liquid culture were directly mixed into nutrient broth (PDB: potato dextrose broth).

For a further experiment, the system named is Puccinia recondita. Put plainly: Leaf disc mixture assay with malonomicin, Puccinia recondita, curative spray timing, 8 dpi. The note with it: column (1): compound of Formula I(a) alone, lines 1-A to 2-C = 200, 100, 50, 25, 12.5, 6.25, 3.13 ppm. It counts as in vivo, Puccinia recondita on wheat (cultivar Kanzler). How it is done:
A stock solution for the lipopeptide compound of Formula I(a) was produced in DMSO (max. 10 mg/ml). Malonomicin was produced according to Law et al, 2018 (Nature Catalys is |VOL 1|DECEMBER 2018|977-984). A stock solution of malonomicin was produced in water plus 0.025% Tween®20.
Assays to test efficacy of mixtures of compound of Formula I(a) in combination with malonomicin on the control of fungal pathogens in a leaf disc assay were designed for two 24well plates.
Table 22 and Table 23. Outline of 24well testplate (1) and testplate (2) including concentration of compounds sprayed per well. The upper number in the cell indicates compound of Formula I(a) concentration (ppm), the lower number malonomicin concentration (ppm). Column (1) holds a dilution series of compound of Formula I(a), row (2-D) hold a dilution series of malonomicin. Well 2-D-(1) represents an untreated check. This design was applied for tests including Puccinia recondita (EPPO code: PUCCRE) with preventive and curative spray timing.
A first set of master plates with 1× concentrated spray solution of the lipopeptide compound of Formula I(a) stock diluted in water with concentrations according to table 22, table 23, table 25 or table 26, respectively, was prepared. Each well contained 2% DMSO and 0.025% Tween20. Accordingly, a second set of master plates with 1× concentrated malonomicin stock diluted in water was prepared. Each well of the second set contained 0.025% Tween20. Leaf segments placed on agar in 24well plates were sprayed with 8 μl of solution from the master plate containing the lipopeptide compound of Formula I(a) and the leaf segments were let to dry, followed 2 hours later by 8 μl of solution from the master plate containing malonomicin. After second sprays had dried, leaf segments were infected with fungal spores to obtain a preventive application timing. Alternatively, leaf segments infected one day before spray of the compounds were used, resulting in a curative spray timing. In addition, several plates were produced where leaf segments were sprayed 2× in absence of test compound (with only DMSO and Tween20), representing the untreated check samples. For each leaf segment percent leaf coverage of disease symptoms was assessed. Percent leaf coverage reduction relative to the untreated check was calculated. Efficacy of the mixtures was tested in duplicate and on different fungal species. Reported efficacy values are the average of two replicate results.
Puccinia recondita (EPPO Code: PUCCRE) with Curative Spray Timing.
Wheat (cultivar Kanzler) leaf segments are placed on agar in multiwell plates (24-well format). The leaf disks are then inoculated with a spore suspension of the fungus. One day after inoculation the test solution is sprayed (8 ul per well). After appropriate incubation the activity of a compound is assessed 8 dpi (days after inoculation) as curative fungicidal activity

Experiment [1] has as its system several phytopathogenic fungi. Put plainly: Liquid culture assays, summary over the fungi tested. It counts as cell-based. The note with it: up to; Tables 2 and 3. As for the experimental part:
Mycelia fragments or conidia suspensions of a fungus, prepared either freshly from liquid cultures of the fungus or from cryogenic storage, were directly mixed into nutrient broth.
A stock solution for compound of Formula I(a) and Formula I(b) was produced in DMSO (max. 10 mg/ml), which was diluted with water plus 0.025% Tween®20 to produce a 10× concentrated sample and 10 μl of this solution was pipetted into a microtiter plate (96-well format). The nutrient broth containing the fungal spores/mycelia fragments was then added to give an end concentration of the tested compound. The test plates were incubated in the dark at 24 °C and 96% rh. The inhibition of fungal growth was determined photometrically after 2-7 days, depending on the pathosystem, and percent antifungal activity relative to the untreated check was calculated.
The effect of the test compound (Formula I(a), I(b) and Lipopeptin A) was tested against the following fungi under the conditions as outlined above and specifically herein below: […]

We go through one molecule from US20260347403A1, “FUNGICIDAL COMPOUND” (priority 2022, published 2026).

Values joined by “and” are separate entries in the source; they are usually repeats but may differ in a detail not shown here. Equal entries are not always repeated. Numbered stars: 1 amine (or outer) side, 2 acyl side, 3 side chain; on linkers, the order of the positions; unused ones are H or OH. Bridge positions count the residues as written; N and C are the ends. Square brackets hold non-standard residues; d marks the D form. Peptide text beside a SMILES is read from it. * marks the point of attachment. Tridecanoyl(12-Me) = CC(C)CCCCCCCCCCC(=O)*; X1 = NC(=O)CC(O)C(N[*:1])C(=O)[*:2]; NMeF = CN[CH](Cc1ccccc1)C(=O)O; NMeN = CN[CH](CC(N)=O)C(=O)O

On to `CC(C)CCCCCCCCCCC(=O)NC1C(=O)NC(CC(=O)O)C(=O)NC(C(O)CC(N)=O)C(=O)NC(CO)C(=O)N(C)C(CC(N)=O)C(=O)N(C)C(Cc2ccccc2)C(=O)NC(CCC(N)=O)C(=O)NC(CCC(=O)O)C(=O)OC1C` (centres unmarked) [Formula I(a)] ({Tridecanoyl(12-Me)}-TD[X1]S[NMeN][NMeF]QE; ester 1-C; configuration not given here), for which the inhibition of growth at 1.56 µg/mL in the experiment with Fusarium culmorum (I(a) 1.56 ppm) stood at 0%. In the experiment on Fusarium culmorum (I(a) 3.125 ppm), the inhibition of growth at 3.125 µg/mL came out at 0%. In addition, the inhibition of growth at 6.25 µg/mL in the experiment on Fusarium culmorum (I(a) 6.25 ppm) came to 0%. For the same molecule, the inhibition of growth at 12.5 µg/mL in the experiment on Fusarium culmorum (I(a) 12.5 ppm) came out at 0%. Moreover, in the experiment with Fusarium culmorum (I(a) 25 ppm), the inhibition of growth at 25 µg/mL was 0%. In addition, the inhibition of growth at 50 µg/mL in the experiment with Fusarium culmorum (I(a) 50 ppm) is 0%. The inhibition of growth at 100 µg/mL in the experiment on Fusarium culmorum (I(a) 100 ppm) came to 0%. The entries for the “control of fungal growth (% reduction of growth in the test well as compared to untreated check)” value with Pyricularia oryzae and in the experiment on Sclerotinia sclerotiorum were 20% and 0%, respectively. Moreover, the “control of fungal growth (% reduction of symtoms on the leaf segment as compared to untreated check)” value in the experiment with Puccinia recondita was 0% and 10%. Moreover, in experiment [1], the “control of phytopathogenic fungi” value is listed as “up to 100%”.
